Results: article PMC8047747 (ACS Omega, 2021)
≈ marks a conversion by molar mass, not a printed value. Where two headings read alike, the source gives them in different places.

Experiments:
[1] = tested on: Mycobacterium tuberculosis H37Rv (ATCC27294); experiment: microbe, parasite or virus in culture; type: cell-based
in vitro = settings: mouse
[2] = tested on: mouse macrophage RAW 264.7 cells
[3] = tested on: M. tuberculosis H37Rv nutrient-starved culture; type: cell-based, Mycobacterium tuberculosis
[4] = Mycobacterium tuberculosis, ATCC27294|H37RV
[5] = RAW 264.7 cells, 50 μg/mL, 48 hr, MTT

| Structure (SMILES) | MIC ([1]; Mtb H37Rv, repeated in Table 2) | MIC [1, 4] | IC50 (in vitro) | % cell inhibition at 50 μg/mL [2, 5] | further results |
| --- | --- | --- | --- | --- | --- |
| O=C(C1CCN(S(=O)(=O)c2ccc([N+](=O)[O-])cc2[N+](=O)[O-])CC1)N1CCN(C(c2ccccc2)c2ccccc2)CC1 [7o, (4-Benzhydrylpiperazin-1-yl) (1-((2,4-dinitrophenyl)sulfonyl)piperidin-4-yl)methanone] | 0.78 µg/mL (≈ 1.31 µM) | 0.78 µg/mL (≈ 1.31 µM) | > 50 µg/mL | 57.2% |  |
| O=[N+]([O-])c1ccc(S(=O)(=O)N2CCN(C(c3ccc(F)cc3)c3ccc(F)cc3)CC2)cc1 [7f, 1-(Bis(4-fluorophenyl)methyl)-4-((4-nitrophenyl)sulfonyl)piperazine] |  | > 25 µg/mL |  |  |  |
| O=[N+]([O-])c1ccc(S(=O)(=O)N2CCN(C(c3ccc(F)cc3)c3ccc(F)cc3)CC2)c([N+](=O)[O-])c1 [7d, 1-(Bis(4-fluorophenyl)methyl)-4-((2,4-dinitrophenyl)sulfonyl)piperazine] |  | > 25 µg/mL |  |  |  |
| O=C(C1CCN(S(=O)(=O)c2ccc([N+](=O)[O-])cc2)CC1)N1CCN(C(c2ccccc2)c2ccccc2)CC1 [7q, (4-Benzhydrylpiperazin-1-yl) (1-((4-Nitrophenyl)sulfonyl)piperidin-4-yl)methanone] |  | > 25 µg/mL |  |  |  |
| O=C(CCCNS(=O)(=O)c1ccc([N+](=O)[O-])cc1[N+](=O)[O-])N1CCN(C(c2ccc(F)cc2)c2ccc(F)cc2)CC1 [7aa, N-(4-(4-(Bis(4-fluorophenyl)methyl)piperazin-1-yl)-4-oxobutyl)-2,4-dinitrobenzene Sulfonamide] | 0.78 µg/mL (≈ 1.29 µM) | 0.78 µg/mL (≈ 1.29 µM) | > 50 µg/mL | 59.2% |  |
| O=[N+]([O-])c1ccc(S(=O)(=O)N2CCN(C(c3ccccc3)c3ccccc3)CC2)cc1 [7c, 1-Benzhydryl-4-((4-nitrophenyl)sulfonyl)piperazine] |  | > 25 µg/mL |  |  |  |
| O=[N+]([O-])c1ccc(S(=O)(=O)N2CCN(C(c3ccccc3)c3ccccc3)CC2)c([N+](=O)[O-])c1 [7a, 1-Benzhydryl-4-((2,4-dinitrophenyl)sulfonyl)piperazine] | 1.56 µg/mL (≈ 3.23 µM) | 1.56 µg/mL (≈ 3.23 µM) | > 50 µg/mL | 57.6% |  |
| O=C(C1CCN(S(=O)(=O)c2ccc([N+](=O)[O-])cc2[N+](=O)[O-])CC1)N1CCN(C(c2ccc(F)cc2)c2ccc(F)cc2)CC1 [7r, (4-(Bis(4-fluorophenyl)methyl)piperazin-1-yl) (1-((2,4-Nitrophenyl)sulfonyl)piperidin-4-yl)methanone] |  |  |  |  | nutrient starvation (log reduction) [3]: 2.2 folds; MIC [1]: 1.56 µg/mL (≈ 2.48 µM); % cell inhibition at 50 μg/mL [2]: 57.2%; IC50 approximation [2]: >50 µg/mL |
| O=[N+]([O-])c1ccccc1S(=O)(=O)N1CCN(C(c2ccccc2)c2ccccc2)CC1 [7b, 1-Benzhydryl-4-((2-nitrophenyl)sulfonyl)piperazine] |  | > 25 µg/mL |  |  |  |
| CC[C@@H](CO)NCCN[C@@H](CC)CO [Ethambutol, reference compound] |  | 1.56 µg/mL (≈ 7.64 µM) |  |  |  |
| O=C(CCNS(=O)(=O)c1ccc([N+](=O)[O-])cc1[N+](=O)[O-])N1CCN(C(c2ccc(F)cc2)c2ccc(F)cc2)CC1 [7l, N-(3-(4-(Bis(4-fluorophenyl)methyl)piperazin-1-yl)-3-oxopropyl)-2,4-dinitrobenzene Sulfonamide] | 0.78 µg/mL (≈ 1.32 µM) | 0.78 µg/mL (≈ 1.32 µM) | > 50 µg/mL | 60.2% |  |
| O=C(C1CCCN(S(=O)(=O)c2ccc([N+](=O)[O-])cc2[N+](=O)[O-])C1)N1CCN(C(c2ccccc2)c2ccccc2)CC1 (stereo not shown) [7s, (4-Benzhydrylpiperazin-1-yl) (1-((2,4-Dinitrophenyl)sulfonyl)piperidin-3-yl)methanone] | 0.78 µg/mL (≈ 1.31 µM) | 0.78 µg/mL (≈ 1.31 µM) | > 50 µg/mL | 59.2% |  |
| CO[C@H]1/C=C/O[C@@]2(C)Oc3c(C)c(O)c4c(O)c(c(/C=N/N5CCN(C)CC5)c(O)c4c3C2=O)NC(=O)/C(C)=C\C=C\[C@H](C)[C@H](O)[C@@H](C)[C@@H](O)[C@@H](C)[C@H](OC(C)=O)[C@@H]1C [Rifampicin, reference compound] | 0.1 µg/mL (≈ 0.122 µM) | 0.1 µg/mL (≈ 0.122 µM) | > 25 µg/mL | 90% | MIC ([1]; Mtb H37Rv strain, triplicate, Table 1 and text): 0.10 µg/mL (≈ 0.122 µM) |
| O=C(C1CCN(S(=O)(=O)c2ccc([N+](=O)[O-])cc2[N+](=O)[O-])C1)N1CCN(C(c2ccccc2)c2ccccc2)CC1 (stereo not shown) [7y, (4-Benzhydrylpiperazin-1-yl) (1-((2,4-Dinitrophenyl)sulfonyl)pyrrolidin-3-yl)methanone] | 0.78 µg/mL (≈ 1.35 µM) | 0.78 µg/mL (≈ 1.35 µM) | > 50 µg/mL | 59.6% |  |
| O=C(C1CCCN(S(=O)(=O)c2ccc([N+](=O)[O-])cc2[N+](=O)[O-])C1)N1CCN(C(c2ccc(F)cc2)c2ccc(F)cc2)CC1 (stereo not shown) [7v, (4-(Bis(4-fluorophenyl)methyl)piperazin-1-yl) (1-((2,4-Dinitrophenyl)sulfonyl)piperidin-3-yl)methanone] | 0.78 µg/mL (≈ 1.24 µM) | 0.78 µg/mL (≈ 1.24 µM) | > 50 µg/mL | 55.7% |  |
| O=[N+]([O-])c1ccccc1S(=O)(=O)N1CCN(C(c2ccc(F)cc2)c2ccc(F)cc2)CC1 [7e, 1-(Bis(4-fluorophenyl)methyl)-4-((2-nitrophenyl)sulfonyl)piperazine] |  | > 25 µg/mL |  |  |  |
| O=C(C1CCCN(S(=O)(=O)c2ccc([N+](=O)[O-])cc2)C1)N1CCN(C(c2ccccc2)c2ccccc2)CC1 (stereo not shown) [7u, (4-Benzhydrylpiperazin-1-yl) (1-((4-Nitrophenyl)sulfonyl)piperidin-3-yl)methanone] |  | > 25 µg/mL |  |  |  |
| NNC(=O)c1ccncc1 [Isoniazid, reference compound] | 0.05 µg/mL (≈ 0.365 µM) |  | > 25 µg/mL | 97% |  |
| O=C(CCNS(=O)(=O)c1ccc([N+](=O)[O-])cc1[N+](=O)[O-])N1CCN(C(c2ccccc2)c2ccccc2)CC1 [7k, N-(3-(4-Benzhydrylpiperazin-1-yl)-3-oxopropyl)-2,4-dinitrobenzenesulfonamide] | 0.78 µg/mL (≈ 1.41 µM) | 0.78 µg/mL (≈ 1.41 µM) | > 50 µg/mL | 61.4% |  |
| O=C(C1CCCN(S(=O)(=O)c2ccccc2[N+](=O)[O-])C1)N1CCN(C(c2ccccc2)c2ccccc2)CC1 (stereo not shown) [7t, (4-Benzhydrylpiperazin-1-yl) (1-((2-Nitrophenyl)sulfonyl)piperidin-3-yl)methanone] |  | > 25 µg/mL |  |  |  |
| O=C(C1CCN(S(=O)(=O)c2ccccc2[N+](=O)[O-])CC1)N1CCN(C(c2ccccc2)c2ccccc2)CC1 [7p, (4-Benzhydrylpiperazin-1-yl) (1-((2-Nitrophenyl)sulfonyl)piperidin-4-yl)methanone] |  | > 25 µg/mL |  |  |  |
| O=C(CNS(=O)(=O)c1ccc([N+](=O)[O-])cc1[N+](=O)[O-])N1CCN(C(c2ccccc2)c2ccccc2)CC1 [7g, N-(2-(4-Benzhydrylpiperazin-1-yl)-2-oxoethyl)-2,4-dinitrobenzenesulfonamide] |  | 12.5 µg/mL (≈ 23.2 µM) |  |  |  |
